Assay results as given in patent publication US12697289B2, “Organic ricinoleate salts as deodorizing agents” (COLONIAL CHEMICAL, INC., priority 2022, dated 2026).

Experiment: Deodorization evaluation with GASTEC gas detector tubes (24 hour acetic acid deodorization study)
Conditions: FIG. 1; GASTEC Detector Tube method; 24 hour equilibration; comparison with industry standard Cola®Quat SME
Text: Deodorization Evaluations with GASTEC Gas Detector Tubes.
The Gas Sampling Pump Kit (GV-100S) and Gas detection tubes are manufactured by GasTec International and purchased through New Star Environmental. The pump provided in the gas sampling pump kit provides a precise vacuum on the tubes and therefore a specific volume of gas. Tubes are pre-calibrated for specific molecules, have a ppm scale on the tube, and show a color change when reacting to the target odor causing molecule. There may be corrections for temperature, humidity, or specific target molecules.
Our exemplary, general method was as follows: • 1. […] Prepare the odorant solution for the experiment. • The concentration will need to be workshopped for each odorant molecule to give an appropriate “untreated” ppm reading • 5. […]
Additionally, the method attempts to control the volume of odorant solution, volume of deodorant solution, total liquid volume, surface area of liquid, volume of headspace, and equilibration time. Ambient temperature and humidity are recorded at the start of equilibration and at the time of measurement. […] The temperature used if correction is necessary is the temperature recorded at measurement. The humidity used if correction is necessary is the humidity recorded before equilibration as this should be the main component of the humidity variations between experiments. […]

| Substance | reducing odor vapors from acetic acid, compared to Cola®Quat SME standard |
| --- | --- |
| Soyamidopropyl Morpholine Ricinoleate | compare favorably |
| soyamidopropyl dimethylamine ricinoleate | compare favorably |
